Assay results from US10934263B2, “Charged ion channel blockers and methods for use” (Nocion Therapeutics, Inc., priority 2019, dated 2021).

Experiments:
NaV1.7 = target: T1, NaV1.7 (Homo sapiens, UniProt Q15858); test: Whole cell patch clamp, internal block of NaV1.7 current (compound in internal solution); assay type: cell-based; details: compound applied internally, manual patch clamp, read-out: Nav1.7 Intracellular Inhibition
T1 construct: expressed in transfected cells; tetracycline-inducible, kept under hygromycin and blasticidin
Procedure: Representative compounds of the invention were synthesized according to the described methods and tested for the ability to inhibit voltage-gated sodium channels.
NaV1.7 was expressed upon induction with tetracycline. Cells were cultured in DMEM containing 10% dialyzed Fetal Bovine Serum (VWR, Radnor, Pa.), 1% Glutamax (VWR, Radnor, Pa.), 1% Penicillin-Streptomycin (VWR, Radnor, Pa.), 100 mg/L Hygromycin (Thermo Fisher Scientific, Waltham, Mass. and 5 mg/L Blasticidin (Alfa Aesar, Haverhill, Mass.). Cells were grown and maintained at 37° C. in a humidified environment containing 10% CO2 in air. Cells were detached from the culture flask for passage and harvested using 0.05% Trypsin-EDTA (Thermo Fisher Scientific, Waltham, Mass.). To induce NaV1.7, cells were induced with tetracycline (0.1-1 μg/mL, IBI Scientific, Peosta, Iowa) the day before recording and plated onto 24-well plates. Cells were washed with DPBS (VWR, Radnor, Pa.), trypsinized and then triturated five times in 10 mL of growth media to break apart cell aggregates. For one 24-well plate, 2 mL of cell suspension was mixed with 23 mL of fresh growth media and 0.1-1 μg/mL tetracycline added. 1 ml of mixed media with cells was then added to each well of a 24-well plate, with a 12 mm coverslip already placed in the bottom of the well. Cells were then incubated in 37° C. and 10% CO2 overnight.
The intracellular solution contained the following (in mM) CsCl 135, NaCl 10, EGTA 10, HEPES 10, MgCl2 2, adjusted to pH 7.2 with CsOH. The external solution was a normal Ringer solution containing (in mM) NaCl 155, HEPES 10, glucose 10, KCl 3.5, CaCl2 1.5, MgCl2 1 adjusted to pH 7.4 with NaOH. CsCl is from Alfa Aesar, Haverhill, Mass. All other chemicals are from Sigma-Aldrich, St. Louis, Mo. In order to test the degree of internal block by test compounds the compounds were dissolved in internal solution at the indicated test concentration. […] In order to test the degree of external block by test compounds the compounds were dissolved in external solution at the indicated test concentration.
18-24 hours after cells were induced with tetracycline, coverslips were placed into a chamber filled with Normal Ringer solution at room temperature and the chamber placed on a microscope. Pipettes were pulled from borosilicate glass on a P97 puller (Sutter Instrument, Novato, Calif.) and polished with a MF-830 Microforge (Narishige International USA, Inc, Amityville, N.Y.) to have a resistance of 1.5-2.5 MΩ when filled with CsCl internal solution at room temperature. Healthy cells (those that are round and translucent with no visible blemishes) were chosen for seal formation. A seal was formed between the pipette and the cell, and a brief pulse of suction was used to “break in” and establish the whole-cell configuration. The membrane potential was held at −100 mV before the voltage protocol began. Only cells with series resistance between 1.5-5 MΩ were retained for analysis. The voltage protocol was as follows: Cells were held at −100 mV for 12 ms followed by a hyperpolarizing step to −105 mV for 12 ms to monitor the leak. Cells were then stepped back to −100 mV for 40 ms. Cells were then depolarized to −20 mV for 10 ms and then returned to −100 mV for 26 ms.
Once the recording was started, the voltage protocol was run at 30 second intervals for 5 minutes to get a stable baseline. This was followed by four 30-second periods of 5 Hz stimulation of the same voltage protocol separated by 1 minute of rest which was then followed by 0.33 Hz stimulation after the last train. Currents were recorded using PatchMaster software with Heka EPC10 (HEKA Electronics, Lambrecht, Germany). Only cells with inward current amplitudes at −20 mV between 400 pA and 4 nA were accepted. In addition, cells having leak currents greater than 10% of their current amplitudes were discarded. […]

[1] = PAMPA membrane permeability assay; assay type: in vitro ADME; details: PAMPA permeability coefficient, GIT lipid, buffer pH 7.4, 4 hours incubation
Procedure: The PAMPA assay (pION, Inc., Woburn Mass.) was used to determine the ability of compounds of the invention to cross an artificial lipid membrane by passive diffusion. Test compounds were dissolved in DMSO (10 mM) and diluted 200-fold in buffer (pION Inc., pH 7.4) to provide 50 uM stock solutions. Buffer (150 μL) was added to a UV blank plate and stock solutions (150 μL) were transferred to a UV reference plate. The blank and reference spectrum were read using a spectrophotometer. Stock solutions (200 μL) were added to the donor plate of the PAMPA sandwich plate and an accept plate painted with GIT lipid (pION Inc, 5 μL) was placed on top. Buffer (200 μL) was added to the acceptor plate and the PAMPA sandwich plate was incubated for 4 hours. Aliquots (150 μL) from the acceptor plate were added to a UV plate and read as acceptor spectrum. Aliquots (150 μL) of the donor solutions were added to a UV analysis plate and read as donor spectrum. The permeability coefficient of test compounds was calculated using PAMPA Explorer™ software (version 3.5.0.4) based on the AUC of the reference plate, the donor plate, and the acceptor plate.

T1 sequence (Q15858 whole entry): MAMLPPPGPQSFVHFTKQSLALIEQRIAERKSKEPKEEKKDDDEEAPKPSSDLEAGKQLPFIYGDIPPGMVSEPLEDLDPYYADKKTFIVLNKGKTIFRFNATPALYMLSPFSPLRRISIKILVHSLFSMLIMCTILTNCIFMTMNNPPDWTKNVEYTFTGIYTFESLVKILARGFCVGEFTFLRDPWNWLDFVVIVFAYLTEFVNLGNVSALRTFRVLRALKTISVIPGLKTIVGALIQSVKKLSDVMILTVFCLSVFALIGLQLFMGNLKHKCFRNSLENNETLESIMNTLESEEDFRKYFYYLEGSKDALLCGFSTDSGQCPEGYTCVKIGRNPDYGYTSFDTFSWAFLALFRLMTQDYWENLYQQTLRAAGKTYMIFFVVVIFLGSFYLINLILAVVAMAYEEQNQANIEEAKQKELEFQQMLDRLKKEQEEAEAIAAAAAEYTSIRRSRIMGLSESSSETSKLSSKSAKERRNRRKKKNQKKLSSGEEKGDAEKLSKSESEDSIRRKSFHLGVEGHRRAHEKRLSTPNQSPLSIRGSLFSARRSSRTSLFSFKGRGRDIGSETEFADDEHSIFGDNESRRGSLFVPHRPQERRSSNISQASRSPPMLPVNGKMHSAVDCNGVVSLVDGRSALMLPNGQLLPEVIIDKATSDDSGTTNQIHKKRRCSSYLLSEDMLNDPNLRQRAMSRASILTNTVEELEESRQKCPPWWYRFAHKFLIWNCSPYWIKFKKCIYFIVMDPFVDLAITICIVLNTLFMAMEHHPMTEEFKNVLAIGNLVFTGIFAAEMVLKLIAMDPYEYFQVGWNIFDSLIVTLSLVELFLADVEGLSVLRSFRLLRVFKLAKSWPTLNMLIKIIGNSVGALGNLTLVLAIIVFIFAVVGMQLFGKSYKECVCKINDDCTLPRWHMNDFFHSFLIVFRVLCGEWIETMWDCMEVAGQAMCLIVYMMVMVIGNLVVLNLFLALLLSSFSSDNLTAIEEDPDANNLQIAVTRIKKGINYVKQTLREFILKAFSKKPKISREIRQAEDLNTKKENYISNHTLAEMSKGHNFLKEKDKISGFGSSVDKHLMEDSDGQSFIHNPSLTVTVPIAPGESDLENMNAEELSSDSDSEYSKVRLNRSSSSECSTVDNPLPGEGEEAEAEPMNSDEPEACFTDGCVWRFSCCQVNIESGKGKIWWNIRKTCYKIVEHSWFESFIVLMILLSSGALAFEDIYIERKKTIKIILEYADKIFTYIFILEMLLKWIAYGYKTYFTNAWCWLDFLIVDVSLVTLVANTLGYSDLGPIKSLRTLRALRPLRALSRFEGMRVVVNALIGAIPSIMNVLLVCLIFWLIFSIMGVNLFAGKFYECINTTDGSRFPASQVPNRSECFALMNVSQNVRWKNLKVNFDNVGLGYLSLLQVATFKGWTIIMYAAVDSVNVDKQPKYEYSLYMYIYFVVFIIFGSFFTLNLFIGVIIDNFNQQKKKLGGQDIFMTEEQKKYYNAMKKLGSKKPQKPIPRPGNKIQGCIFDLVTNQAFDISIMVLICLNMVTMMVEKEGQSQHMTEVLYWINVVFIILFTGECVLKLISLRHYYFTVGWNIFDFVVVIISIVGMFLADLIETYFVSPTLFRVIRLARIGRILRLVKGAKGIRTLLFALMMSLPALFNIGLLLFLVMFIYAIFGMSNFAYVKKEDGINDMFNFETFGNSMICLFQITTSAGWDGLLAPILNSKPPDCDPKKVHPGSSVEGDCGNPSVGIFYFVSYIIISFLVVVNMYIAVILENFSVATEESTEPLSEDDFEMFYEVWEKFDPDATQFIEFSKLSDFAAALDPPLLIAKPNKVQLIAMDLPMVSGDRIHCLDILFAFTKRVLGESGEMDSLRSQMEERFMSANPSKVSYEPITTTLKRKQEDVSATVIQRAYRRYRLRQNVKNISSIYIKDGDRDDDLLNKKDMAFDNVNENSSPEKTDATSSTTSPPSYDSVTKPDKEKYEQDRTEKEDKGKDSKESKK

inhibition at 32 µM (NaV1.7)	PAMPA (10^−6 cm/s) [1]	inhibition at 10 µM (NaV1.7)	SMILES
< 40%	+ (<0.1 10^−6 cm/s)		Cc1cc(Cl)cc(C)c1NC(=O)C[n+]1ccccc1.[Br-] [Compound 9A, 1-(2-((4-chloro-2,6-dimethylphenyl)amino)-2-oxoethyl) pyridin-1-ium bromide]
	++ (0.1-2.0 10^−6 cm/s)		CCNC(=O)Cn1ccc[n+]1CC(=O)Nc1c(C)cccc1C.[Br-] [Compound 30A, 2-(2-((2,6-dimethylphenyl)amino)-2-oxoethyl)-1-(2-(ethylamino)-2-oxoethyl)-1H-pyrazol-2-ium bromide]
< 40%	+ (<0.1 10^−6 cm/s)		Cc1cc(C)c(NC(=O)C[n+]2ccccc2)c(C)c1.[Br-] [Compound 8A, 1-(2-(mesitylamino)-2-oxoethyl)pyridin-1-ium bromide]
> 95%	+ (<0.1 10^−6 cm/s)		Cc1cccc(C)c1NC(=O)C[n+]1cccc2ccccc21.[Br-] [Compound 18A]
70 to 95%	+ (<0.1 10^−6 cm/s)		Cc1cccc(C)c1NC(=O)C[n+]1ccccc1C.[Br-] [Compound 5A, 1-(2-((2,6-dimethylphenyl)amino)-2-oxoethyl)-2-methylpyridin-1-ium bromide]
> 95%	+ (<0.1 10^−6 cm/s)		Cc1cccc(C)c1NC(=O)C[n+]1cccc(C2CCCC2)c1.[Br-] [Compound 21A]
		70 to 95%	Cc1cccc(C)c1NC(=O)C[n+]1cccc(C(C)C)c1 [Compound 31A]
< 40%	+ (<0.1 10^−6 cm/s)		Cc1cc(F)cc(C)c1NC(=O)C[n+]1ccccc1.[Br-] [Compound 7A, 1-(2-((4-fluoro-2,6-dimethylphenyl)amino)-2-oxoethyl) pyridin-1-ium bromide]
70 to 95%	+ (<0.1 10^−6 cm/s)		Cc1cccc(C)c1NC(=O)C[n+]1cc(-c2ccccc2)n(C)c1.[Br-] [Compound 24A]
> 95%	+ (<0.1 10^−6 cm/s)		Cc1cccc(C)c1NC(=O)C[n+]1c(C)ccc(-c2ccccc2)c1C.[Br-] [Compound 23A]
70 to 95%			Cc1cccc(C)c1NC(=O)C[n+]1cccc(C2CCCCC2)c1 [Compound 20A]
70 to 95%			CCc1cc[n+](CC(=O)Nc2c(C)cccc2C)cc1 [Compound 19A]
	+ (<0.1 10^−6 cm/s)		Cc1cccc(C)c1NC(=O)C[n+]1cccn1C1CCCCC1.[Br-] [Compound 28A]
	+ (<0.1 10^−6 cm/s)		Cc1cccc(C)c1NC(=O)C[n+]1cccn1CC(C)C.[Br-] [Compound 27A]
< 40%	+ (<0.1 10^−6 cm/s)		Cc1cccc(C)c1NC(=O)C[n+]1ccc(-c2ccccc2)cc1.[Br-] [Compound 14A]
< 40%	+ (<0.1 10^−6 cm/s)		COc1cc(C)c(NC(=O)C[n+]2ccccc2)c(C)c1.[Br-] [Compound 10A, 1-(2-((4-methoxy-2,6-dimethylphenyl)amino)-2-oxoethyl) pyridin-1-ium bromide]

Further lines, the molecule ahead of its results:

SMILES	inhibition at 32 µM (NaV1.7)	PAMPA (10^−6 cm/s) [1]	inhibition at 10 µM (NaV1.7)
Cc1cccc(C)c1NC(=O)C[n+]1ccn(C(C)(C)C)c1 [Compound 36]		+ (<0.1 10^−6 cm/s)	70 to 95%
CCNC(=O)Cn1cc[n+](CC(=O)Nc2c(C)cccc2C)c1 [Compound 62]		+ (<0.1 10^−6 cm/s)	< 40%
Cc1cccc(C)c1NC(=O)C[n+]1ccn(-c2ccc(Cl)cc2)c1 [Compound 64]		++ (0.1-2.0 10^−6 cm/s)	
CCC(C(=O)Nc1c(C)cccc1C)[n+]1ccccc1.[Br-] (stereo not drawn) [Compound 3A, 1-(1-((2,6-dimethylphenyl)amino)-1-oxobutan-2-yl)pyridin-1-ium bromide]	70 to 95%	++ (0.1-2.0 10^−6 cm/s)	
Cc1cccc(C)c1NC(=O)C[n+]1cccc(C#N)c1 [Compound 52]			70 to 95%
COc1ccc[n+](CC(=O)Nc2c(C)cccc2C)c1 [Compound 43]			70 to 95%
CCCCCCn1cc[n+](CC(=O)Nc2c(C)cccc2C)c1 [Compound 63]		+ (<0.1 10^−6 cm/s)	40 to 70%
Cc1cccc(C)c1NC(=O)C[n+]1ccn(C(C)C)c1 [Compound 58]		+ (<0.1 10^−6 cm/s)	40 to 70%
CCCn1cc[n+](CC(=O)Nc2c(C)cccc2C)c1 [Compound 57]			70 to 95%
CCOC(=O)Cn1cc[n+](CC(=O)Nc2c(C)cccc2C)c1 [Compound 60]		+++ (2.0-10.010^−6 cm/s)	40 to 70%
Cc1cccc(C)c1NC(=O)C[n+]1ccn(-c2ccccc2)c1 [Compound 37]			70 to 95%
Cc1cccc(C)c1NC(=O)C[n+]1cccc(Cl)c1 [Compound 45]			70 to 95%
Cc1cccc(C)c1NC(=O)C[n+]1ccnc(C)c1C [Compound 55]			40 to 70%
CCC(C(=O)Nc1c(C)cccc1C)[n+]1ccn(C)c1.[Br-] (stereo not drawn) [Compound 4A, 3-(1-((2,6-dimethylphenyl)amino)-1-oxobutan-2-yl)-1-methyl-1H-imidazol-3-ium bromide]	40 to 70%	+ (<0.1 10^−6 cm/s)	
Cc1ccc[n+](CC(=O)Nc2c(C)cccc2C)c1 [Compound 39]			70 to 95%
Cc1cccc(C)c1NC(=O)C[n+]1cc2ccccn2c1 [Compound 35]			40 to 70%
CC(=O)Nc1ccc[n+](CC(=O)Nc2c(C)cccc2C)c1 [Compound 48]		+ (<0.1 10^−6 cm/s)	> 95%
CCOC(=O)c1c[n+](CC(=O)Nc2c(C)cccc2C)cn1C [Compound 61]			40 to 70%
Cc1cccc(C)c1NC(=O)C[n+]1cccc(O)c1 [Compound 42]			< 40%
Cc1cccc(C)c1NC(=O)C[n+]1cccc(F)c1 [Compound 44]			70 to 95%
Cc1cccc(C)c1OC(=O)C[n+]1cccn1C1CCCCC1 [Compound 111]			> 95%
Cc1cccc(C)c1NC(=O)C[n+]1ccn(C)c1.[Br-] [Compound 2A, 3-(2-((2,6-dimethylphenyl)amino)-2-oxoethyl)-1-methyl-1H-imidazol-3-ium bromide]	40 to 70%	+ (<0.1 10^−6 cm/s)	
Cc1cccc(C)c1NC(=O)C[n+]1cccc(C(=O)N(C)C)c1 [Compound 41]		+ (<0.1 10^−6 cm/s)	40 to 70%
Cc1cccc(C)c1NC(=O)C[n+]1ccn(Cc2ccccc2)c1 [Compound 38]			70 to 95%
